Measured values as given in patent US20260364061A1, “COMPOUNDS, COMPOSITIONS, AND METHODS FOR THE TREATMENT OF CANCER” (Ohio State Innovation Foundation, priority 2023, published 2026).
Like-named read-outs stand apart in the source and are kept apart here.

Tests used:
[1] = test system: shIWS1 (IWS1 knockdown) dedifferentiated liposarcoma cells (cell lines Lipo863 and Lipo815); assay: Migration assay, IWS1 knockdown (shIWS1) cells; assay type: cell-based, human; conditions: 24 hours of treatment, vs non-treatment control
Procedure: (§1) FIG. 16A-16B. Evaluation of the effect of IWS1 inhibitors identified from in silico screening on the migration of cancer cells. […] The migration assay was performed using two cell groups: Empty Vector (EV, Negative control) and shIWS1 (IWS1 knockdown).
(§2) To evaluate these compounds, we used dedifferentiated cell lines Lipo863 and Lipo815 as an in-vitro model of dedifferentiated liposarcoma (DDLPS). […] FIG. 15A-15C. Using these candidates as potential pharmacological inhibitors of IWS1, we expected to reproduce/mimic phenotypical changes specific for lentiviral IWS1 knockdown. […] We performed a migration assay to assess the ability of cells to migrate after 24 hours of treatment compared to intact cells (EV) as well as IWS1 knockdown cells (shIWS1). Using drug concentrations that would not affect the viability of the cells, we sought to evaluate predominantly the migratory ability of cells. […] FIG. 17.

[2] = test system: Empty Vector (EV) dedifferentiated liposarcoma cells (cell lines Lipo863 and Lipo815); assay: Migration assay, Empty Vector (EV) control cells; assay type: cell-based, human; conditions: for reduction in cell migration, Empty Vector (EV): 24 hours of treatment, EV cells, non-cytotoxic concentration, vs control group, FIG. 16A-16B
Procedure: as §1
FIG. 17. Evaluation of the dose-dependent effect of IWS1 inhibitors identified from in silico screening on the migration of cancer cells. Cell migration in vitro represents to some extent the ability of cells to metastasize in vivo.
as §2

Lipo863 cells = assay: Spheroid formation in matrigel extracellular matrix scaffold; assay type: cell-based, human; conditions: 14-day treatment; FIG. 19
From the text: FIG. 19. To evaluate the impact of IWS1 inhibition on spheroid formation, a matrigel extracellular matrix scaffold was employed.
To evaluate the impact of IWS1 inhibition on spheroid formation, a matrigel extracellular matrix scaffold was employed.

unresectable LPS = conditions: patients with unresectable LPS; cited from earlier work
IWS1/Spt6 complex = assay: Co-immunoprecipitation of the IWS1/Spt6 complex from treated cells; assay type: cell-based, human; conditions: Co-IP after 48 hours of treatment; vs DMSO negative control
From the text: The Co-IP method allowed us to analyze IWS1/Spt6 protein complex directly and assess the efficiency of the drug candidates to disrupt the complex.

IWS1 = target: T1, IWS1 (Homo sapiens, UniProt Q96ST2); assay: Nuclear/cytosolic fraction analysis of IWS1 distribution; assay type: cell-based; conditions: 20 uM; 48-hour treatment; DMSO negative control ratio 0.75
T1 construct: document uses human liposarcoma lines; nuclear/cytosolic fractionation
From the text: The binding of the small molecule to IWS1 may cause the redistribution of the latter in the cell (cytoplasmic vs nuclear locations) due to conformational changes of the protein or disruption of its functions. To characterize the effect of a drug candidate on the distribution of IWS1 in the cell, we performed fraction analysis by separating cytoplasmic and nuclear proteins.

[3] = test system: dedifferentiated liposarcoma (DDLPS) cell line Lipo863; assay: Cell cytotoxicity (MTS) assay; conditions: Homo sapiens
[4] = test system: invasive DDLPS cell line Lipo246; assay: Invasion of DDLPS cells; assay type: cell-based; conditions: 48 h, read-out: decrease in invasion ability
From the text: FIG. 18. Evaluation of the effect of IWS1 inhibitors identified from in silico screening on the […] of cancer cells. Invasiveness is important parameter used to characterize the aggressive behavior of cancer cells.
Invasiveness is important parameter used to characterize the aggressive behavior of cancer cells.

SMILES | reduction in migration, shIWS1 cells [1] | reduction in cell migration, Empty Vector (EV) [2] [%] | spheroid formation: number of spheroids (Lipo863 cells) | spheroid formation: size of spheroids (Lipo863 cells) | other results
CN1CCC(=C2c3ccccc3C=Cc3ccccc32)CC1 [Cyproheptadine] | no significant reduction | 24 |  |  | 
Clc1ccc2c(c1)CCc1cccnc1C2=C1CCNCC1 [Desloratadine] |  |  | significantly reduced | significantly reduced | 
COc1cccc2c1C(=O)c1c(O)c3c(c(O)c1C2=O)C[C@@](O)(C(=O)CO)C[C@@H]3O[C@H]1C[C@H](N)[C@H](O)[C@H](C)O1 [Doxorubicin] |  |  |  |  | 5-year survival (unresectable LPS): 20-30%; response rate (unresectable LPS): 25%
CN1CCC(=C2c3ccccc3CC(=O)c3sccc32)CC1 [Ketotifen] | no significant reduction | 18 | significantly reduced | significantly reduced | decrease in amount of IWS1/Spt6 complex pulled down (IWS1/Spt6 complex): more than 50%; decrease in migration ability (dose-dependent) ([2]; 1-10 uM solutions, FIG. 17): 18-44%; increase of ratio between nuclear and cytosolic fractions of IWS1 (IWS1): 1.1; IC50 ([3]; read-out: IC50 (cell cytotoxicity assay)): 63 µM; IC50 ([3]; read-out: IC50 (the concentration at which the drug kills 50% of cancer cells)): 63 µM; inhibition at 20 µM [4]: 30%
